Test in all cases: NCI anticancer screen, dose series, 48 h
In assay [1] the test system is MDA-N.
In assay [2] the test system is 786-0 renal.
Assay [3] has as its system ACHN renal.
Assay [4] concerns MCF7 breast.
In assay [5] the test system is MDA-MB-231 breast.
Assay [6] deals with SF-295 CNS.
Assay [7] concerns SNB-75 CNS.
In assay [8] the test system is A498 renal.
Assay [9] relates to HL-60(TB) leukemia.
Assay [10] deals with SK-MEL-28 melanoma.
Assay [11] deals with SK-MEL-5 melanoma.
Assay [12] deals with UO-31 renal.
Assay [13] deals with MOLT-4 leukemia.
Assay [14] relates to HCT-15 colon.
Assay [15] relates to COLO 205 colon.
In assay [16] the test system is PC-3 prostate.

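Exposure lasted 48 hours, with cells grown in 96-well plates and compounds tested at five concentrations. TGI: total growth inhibition.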 Where only a bound is given, the exact number is not on record here.

Among the data in PubChem BioAssay (NCI) are TGI values, retold here.

Take `CCCCCCCCCCCCOP(=O)(O)OP(=O)(O)OCC1OC(n2ccc(N)nc2=O)CC1O` (stereo not drawn): the TGI in [1], in [2], in [3], in assay [4], in [5] and in assay [6] was more than 100 µM throughout. The TGI in assay [7], in [8], in [9], in assay [10], in [11] and in assay [12] was more than 100 µM in each case. The TGI in assay [13], in assay [14], in [15] and in [16] was more than 100 µM in each case.

As to `N#CC1(C#N)NC(c2ccccc2)C(C#N)(C#N)NC1c1ccccc1` (stereo not drawn), the TGI in assay [1], in assay [2], in assay [3], in [4], in assay [5] and in assay [6] was more than 100 µM in each case. The TGI in assay [7], in [8], in assay [9], in assay [10], in [11] and in assay [12] was more than 100 µM throughout. Further, the TGI in assay [13], in assay [14], in assay [15] and in assay [16] was more than 100 µM in each case.

`Cc1ccc(C2(c3ccc(Cl)cc3)c3ccccc3C3=NCCN32)cc1` (stereo not drawn): the TGI in assay [1] is 12.4 µM; in assay [2], 26.9 µM; in assay [3], 19.8 µM; in [4], 20.5 µM; in [5], 19.4 µM; in assay [6], 20.6 µM. In addition, the TGI in assay [7] turned out to be 24.9 µM; in assay [8] it was 20 µM; in assay [9], 23.9 µM; in [10], 35.9 µM; in assay [11], 23.2 µM; in assay [12] it was 18.1 µM. The TGI in [13] was found to be 20.9 µM; in assay [14], 24 µM; in [15] it was 18.7 µM; in assay [16], 21.6 µM.

With `CCCNC(=S)N/N=C(\C)c1ccc(S(=O)(=O)N(C)c2ccccc2)cc1`, the TGI in assay [1] was more than 100 µM; in [2], more than 72.9 µM; in [3], more than 64.9 µM; in [4], more than 100 µM; in [5], more than 100 µM; in assay [6] it was 58 µM. The TGI is more than 58.4 µM in assay [7]; more than 100 µM in [8]; more than 100 µM in assay [9]; more than 100 µM in assay [10]; more than 100 µM in [11]; more than 100 µM in [12]. For the same compound, the TGI in [13], in assay [14], in [15] and in [16] was more than 100 µM throughout.

Regarding `Cc1ccc(C(=O)Nc2ccc(CP(=O)(O)O)cc2)cc1NC(=O)c1cccc(N)c1`, the TGI in [1], in assay [2], in assay [3], in assay [4], in assay [5] and in assay [6] was more than 100 µM throughout. Besides, the TGI in assay [7], in [8], in [9], in assay [10], in [11] and in assay [12] was more than 100 µM throughout. For the same compound, the TGI in assay [13], in assay [14], in assay [15] and in assay [16] was more than 100 µM each time.

Turning to `COC(=O)C1CCN(C(=O)OC(C)(C)C)CC1`, the TGI in assay [1], in assay [2], in assay [3], in assay [4], in assay [5] and in [6] was more than 100 µM throughout. For the same compound, the TGI in [7], in [8], in assay [9], in assay [10], in [11] and in [12] was more than 100 µM in each case. Besides, the TGI in assay [13], in assay [14], in assay [15] and in assay [16] was more than 100 µM in each case.

Consider `O=c1c2ccccc2[nH]n1Cc1ccccc1`, for which the TGI in assay [1], in assay [2], in assay [3], in assay [4], in assay [5] and in assay [6] was more than 100 µM in each case. In addition, the TGI in [7], in assay [8], in [9], in assay [10], in assay [11] and in assay [12] was more than 100 µM in each case. Moreover, the TGI in [13], in assay [14], in [15] and in assay [16] was more than 100 µM each time.

As to `COc1cc(CSc2ccc(O)cc2)cc(OC)c1OC`, the TGI in assay [1] was more than 100 µM; in assay [2] it was more than 100 µM; in assay [3], more than 100 µM; in assay [4], 66.6 µM; in assay [5], more than 100 µM; in assay [6], 95 µM. The TGI in [7] is 86.2 µM; in assay [8], more than 100 µM; in assay [9], more than 100 µM; in [10], more than 100 µM; in assay [11], 34.9 µM; in assay [12], 52 µM. Besides, the TGI in assay [13], in assay [14], in [15] and in assay [16] was more than 100 µM each time.
